Assay results as given in article PMC8744458 (Beilstein Journal of Organic Chemistry, 2022).
“Also recorded” adds a separate entry of the source. No end group written: not given here.

Key:
[1] = on-resin intramolecular Suzuki-Miyaura biaryl stapling (i,i+4) between 6- or 7-bromo-Trp and aryl boronic acid/Bpin side chain; Pd2(dba)3 0.2 eq, sSPhos 0.4 eq, KF 4 eq, microwave 120 C 30 min; then TFA/TIS/H2O cleavage; details: the molecule shown is the open-chain precursor, DME/EtOH/H2O 9:9:2, 16.7 mM, 0.5 h
[2] = system: Proteinase K; assay: Proteinase K (2.5 µg mL−1) in Na2HPO4 buffer (100 mM, pH 7.4); details: 25 °C, up to 120 min
[3] = not given; remark: listed apart in the source
[4] = not given; remark: listed apart in the source
[5] = target: T1, β-catenin (Homo sapiens, UniProt P35222); assay: direct fluorescence polarisation
T1 chain: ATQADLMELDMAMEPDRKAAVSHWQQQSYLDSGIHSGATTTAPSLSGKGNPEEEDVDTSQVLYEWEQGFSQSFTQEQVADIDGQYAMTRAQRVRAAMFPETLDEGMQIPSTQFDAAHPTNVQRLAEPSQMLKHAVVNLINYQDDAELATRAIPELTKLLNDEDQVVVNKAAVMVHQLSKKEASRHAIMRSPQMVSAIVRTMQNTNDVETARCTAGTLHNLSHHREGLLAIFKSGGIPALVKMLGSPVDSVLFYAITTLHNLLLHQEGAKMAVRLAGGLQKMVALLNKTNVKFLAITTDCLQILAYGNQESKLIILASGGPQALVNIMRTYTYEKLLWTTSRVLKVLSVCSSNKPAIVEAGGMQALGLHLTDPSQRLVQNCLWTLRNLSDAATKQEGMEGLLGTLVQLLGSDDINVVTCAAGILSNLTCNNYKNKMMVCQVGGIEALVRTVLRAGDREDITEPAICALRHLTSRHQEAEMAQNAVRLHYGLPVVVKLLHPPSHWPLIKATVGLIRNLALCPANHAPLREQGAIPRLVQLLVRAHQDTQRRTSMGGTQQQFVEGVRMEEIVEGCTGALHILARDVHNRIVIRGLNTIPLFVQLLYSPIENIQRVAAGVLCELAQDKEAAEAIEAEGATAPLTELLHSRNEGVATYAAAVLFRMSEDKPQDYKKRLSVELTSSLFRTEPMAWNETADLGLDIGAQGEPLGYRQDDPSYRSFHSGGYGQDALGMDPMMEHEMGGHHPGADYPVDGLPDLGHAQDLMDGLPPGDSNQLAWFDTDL

In the case of `CC[C@H](C)[C@H](NC(=O)[C@H](Cc1c[nH]c2cc(Br)ccc12)NC(=O)[C@H](CCC(=O)OC(C)(C)C)NC(=O)[C@@H]1CCCN1C(=O)[C@H](CC(=O)NC(c1ccccc1)(c1ccccc1)c1ccccc1)NC(=O)[C@H](CCC(=O)OC(C)(C)C)NC(C)=O)C(=O)N[C@@H](CC(C)C)C(=O)N[C@@H](CC(=O)OC(C)(C)C)C(=O)N[C@@H](Cc1ccc(B2OC(C)(C)C(C)(C)O2)cc1)C(=O)N[C@@H](Cc1cn(C(c2ccccc2)(c2ccccc2)c2ccccc2)cn1)C(=O)N[C@H](C(=O)N[C@@H](CCC(=O)NC(c1ccccc1)(c1ccccc1)c1ccccc1)C(=O)N[C@@H](CCCNC(=N)NS(=O)(=O)c1c(C)c(C)c2c(c1C)CC(C)(C)O2)C(=O)N[C@H](C(=O)N[C@@H](CCSC)C(N)=O)C(C)C)C(C)C`, the ring closure, overall yield ([1]; 24-membered ring) is reported as 4%.

For `CC[C@H](C)[C@H](NC(=O)[C@H](Cc1c[nH]c2cc(Br)ccc12)NC(=O)[C@H](CCC(=O)OC(C)(C)C)NC(=O)[C@@H]1CCCN1C(=O)[C@H](CC(=O)NC(c1ccccc1)(c1ccccc1)c1ccccc1)NC(=O)[C@H](CCC(=O)OC(C)(C)C)NC(C)=O)C(=O)N[C@@H](CC(C)C)C(=O)N[C@@H](CC(=O)OC(C)(C)C)C(=O)N[C@@H](CCCNC(=O)c1ccc(B(O)O)cc1)C(=O)N[C@@H](Cc1cn(C(c2ccccc2)(c2ccccc2)c2ccccc2)cn1)C(=O)N[C@H](C(=O)N[C@@H](CCC(=O)NC(c1ccccc1)(c1ccccc1)c1ccccc1)C(=O)N[C@@H](CCCNC(=N)NS(=O)(=O)c1c(C)c(C)c2c(c1C)CC(C)(C)O2)C(=O)N[C@H](C(=O)N[C@@H](CCSC)C(N)=O)C(C)C)C(C)C`, the ring closure, overall yield ([1]; 28-membered ring) was 8%.

With `CC[C@H](C)[C@H](NC(=O)[C@H](Cc1c[nH]c2c(Br)cccc12)NC(=O)[C@H](CCC(=O)OC(C)(C)C)NC(=O)[C@@H]1CCCN1C(=O)[C@H](CC(=O)NC(c1ccccc1)(c1ccccc1)c1ccccc1)NC(=O)[C@H](CCC(=O)OC(C)(C)C)NC(C)=O)C(=O)N[C@@H](CC(C)C)C(=O)N[C@@H](CC(=O)OC(C)(C)C)C(=O)N[C@@H](CCCCNC(=O)c1ccc(B(O)O)cc1)C(=O)N[C@@H](Cc1cn(C(c2ccccc2)(c2ccccc2)c2ccccc2)cn1)C(=O)N[C@H](C(=O)N[C@@H](CCC(=O)NC(c1ccccc1)(c1ccccc1)c1ccccc1)C(=O)N[C@@H](CCCNC(=N)NS(=O)(=O)c1c(C)c(C)c2c(c1C)CC(C)(C)O2)C(=O)N[C@H](C(=O)N[C@@H](CCSC)C(N)=O)C(C)C)C(C)C` the ring closure, overall yield ([1]; 28-membered ring) was 11%.

For “Ac-Glu-Asn-Pro-Glu-Trp-Ile-Leu-Asp-Lys-His-Val-Gln-Arg-Val-Met-NH2 (Trp and Lys drawn as structures, side chains cross-linked by the 7-aryl-Trp staple)”, the cleaved bond [2] was “Gln-Arg” and the not cleaved [2] was “not hydrolysed after leucine within 120 min; also recorded: not hydrolysed after lysine within 120 min”.

Molecule `CC[C@H](C)[C@H](NC(=O)[C@H](Cc1c[nH]c2cc(Br)ccc12)NC(=O)[C@H](CCC(=O)OC(C)(C)C)NC(=O)[C@@H]1CCCN1C(=O)[C@H](CC(=O)NC(c1ccccc1)(c1ccccc1)c1ccccc1)NC(=O)[C@H](CCC(=O)OC(C)(C)C)NC(C)=O)C(=O)N[C@@H](CC(C)C)C(=O)N[C@@H](CC(=O)OC(C)(C)C)C(=O)N[C@@H](CCCCNC(=O)c1ccc(B(O)O)cc1)C(=O)N[C@@H](Cc1cn(C(c2ccccc2)(c2ccccc2)c2ccccc2)cn1)C(=O)N[C@H](C(=O)N[C@@H](CCC(=O)NC(c1ccccc1)(c1ccccc1)c1ccccc1)C(=O)N[C@@H](CCCNC(=N)NS(=O)(=O)c1c(C)c(C)c2c(c1C)CC(C)(C)O2)C(=O)N[C@H](C(=O)N[C@@H](CCSC)C(N)=O)C(C)C)C(C)C` has a ring closure, overall yield ([1]; 29-membered ring) of 10%.

`CC[C@H](C)[C@H](NC(=O)[C@H](Cc1c[nH]c2c(Br)cccc12)NC(=O)[C@H](CCC(=O)OC(C)(C)C)NC(=O)[C@@H]1CCCN1C(=O)[C@H](CC(=O)NC(c1ccccc1)(c1ccccc1)c1ccccc1)NC(=O)[C@H](CCC(=O)OC(C)(C)C)NC(C)=O)C(=O)N[C@@H](CC(C)C)C(=O)N[C@@H](CC(=O)OC(C)(C)C)C(=O)N[C@@H](CCNC(=O)c1ccc(B(O)O)cc1)C(=O)N[C@@H](Cc1cn(C(c2ccccc2)(c2ccccc2)c2ccccc2)cn1)C(=O)N[C@H](C(=O)N[C@@H](CCC(=O)NC(c1ccccc1)(c1ccccc1)c1ccccc1)C(=O)N[C@@H](CCCNC(=N)NS(=O)(=O)c1c(C)c(C)c2c(c1C)CC(C)(C)O2)C(=O)N[C@H](C(=O)N[C@@H](CCSC)C(N)=O)C(C)C)C(C)C` gave a ring closure, overall yield ([1]; 26-membered ring) of 9%.

With `CC[C@H](C)[C@H](NC(=O)[C@H](Cc1c[nH]c2c(Br)cccc12)NC(=O)[C@H](CCC(=O)OC(C)(C)C)NC(=O)[C@@H]1CCCN1C(=O)[C@H](CC(=O)NC(c1ccccc1)(c1ccccc1)c1ccccc1)NC(=O)[C@H](CCC(=O)OC(C)(C)C)NC(C)=O)C(=O)N[C@@H](CC(C)C)C(=O)N[C@@H](CC(=O)OC(C)(C)C)C(=O)N[C@@H](CCCCNC(=O)CCc1ccc(B(O)O)cc1)C(=O)N[C@@H](Cc1cn(C(c2ccccc2)(c2ccccc2)c2ccccc2)cn1)C(=O)N[C@H](C(=O)N[C@@H](CCC(=O)NC(c1ccccc1)(c1ccccc1)c1ccccc1)C(=O)N[C@@H](CCCNC(=N)NS(=O)(=O)c1c(C)c(C)c2c(c1C)CC(C)(C)O2)C(=O)N[C@H](C(=O)N[C@@H](CCSC)C(N)=O)C(C)C)C(C)C` the ring closure, overall yield ([1]; 30-membered ring) was 14%.

With Ac-ENPESILDEHVQRVM-NH2 the MRE (deg cm2 dmol-1) was -2860, the θ222 [3] was -4.29 mdeg and the [θ]222 (deg cm2 dmol-1) [4] was -42900.

In the case of `CC[C@H](C)[C@H](NC(=O)[C@H](Cc1c[nH]c2c(Br)cccc12)NC(=O)[C@H](CCC(=O)OC(C)(C)C)NC(=O)[C@@H]1CCCN1C(=O)[C@H](CC(=O)NC(c1ccccc1)(c1ccccc1)c1ccccc1)NC(=O)[C@H](CCC(=O)OC(C)(C)C)NC(C)=O)C(=O)N[C@@H](CC(C)C)C(=O)N[C@@H](CC(=O)OC(C)(C)C)C(=O)N[C@@H](CCCNC(=O)c1ccc(B(O)O)cc1)C(=O)N[C@@H](Cc1cn(C(c2ccccc2)(c2ccccc2)c2ccccc2)cn1)C(=O)N[C@H](C(=O)N[C@@H](CCC(=O)NC(c1ccccc1)(c1ccccc1)c1ccccc1)C(=O)N[C@@H](CCCNC(=N)NS(=O)(=O)c1c(C)c(C)c2c(c1C)CC(C)(C)O2)C(=O)N[C@H](C(=O)N[C@@H](CCSC)C(N)=O)C(C)C)C(C)C`, the ring closure, overall yield ([1]; 27-membered ring) is reported as 8%.

Molecule `CC[C@H](C)[C@H](NC(=O)[C@H](Cc1c[nH]c2cc(Br)ccc12)NC(=O)[C@H](CCC(=O)OC(C)(C)C)NC(=O)[C@@H]1CCCN1C(=O)[C@H](CC(=O)NC(c1ccccc1)(c1ccccc1)c1ccccc1)NC(=O)[C@H](CCC(=O)OC(C)(C)C)NC(C)=O)C(=O)N[C@@H](CC(C)C)C(=O)N[C@@H](CC(=O)OC(C)(C)C)C(=O)N[C@@H](CCNC(=O)c1ccc(B(O)O)cc1)C(=O)N[C@@H](Cc1cn(C(c2ccccc2)(c2ccccc2)c2ccccc2)cn1)C(=O)N[C@H](C(=O)N[C@@H](CCC(=O)NC(c1ccccc1)(c1ccccc1)c1ccccc1)C(=O)N[C@@H](CCCNC(=N)NS(=O)(=O)c1c(C)c(C)c2c(c1C)CC(C)(C)O2)C(=O)N[C@H](C(=O)N[C@@H](CCSC)C(N)=O)C(C)C)C(C)C` has a ring closure, overall yield ([1]; 27-membered ring) of 8%.

For `CC[C@H](C)[C@H](NC(=O)[C@H](Cc1c[nH]c2c(Br)cccc12)NC(=O)[C@H](CCC(=O)OC(C)(C)C)NC(=O)[C@@H]1CCCN1C(=O)[C@H](CC(=O)NC(c1ccccc1)(c1ccccc1)c1ccccc1)NC(=O)[C@H](CCC(=O)OC(C)(C)C)NC(C)=O)C(=O)N[C@@H](CC(C)C)C(=O)N[C@@H](CC(=O)OC(C)(C)C)C(=O)N[C@@H](Cc1ccc(B2OC(C)(C)C(C)(C)O2)cc1)C(=O)N[C@@H](Cc1cn(C(c2ccccc2)(c2ccccc2)c2ccccc2)cn1)C(=O)N[C@H](C(=O)N[C@@H](CCC(=O)NC(c1ccccc1)(c1ccccc1)c1ccccc1)C(=O)N[C@@H](CCCNC(=N)NS(=O)(=O)c1c(C)c(C)c2c(c1C)CC(C)(C)O2)C(=O)N[C@H](C(=O)N[C@@H](CCSC)C(N)=O)C(C)C)C(C)C`, the ring closure, overall yield ([1]; 23-membered ring) was 3%.

With Ac-ENPEWILDKHVQRVM-NH2 the cleaved bond [2] was “Leu-Asp; also recorded: Lys-His; also recorded: Gln-Arg”.

In the case of PESILDEHVQRVLRT (also: FITC label, site not given here) [fAxWt (FITC-labelled axin CBD peptide) 467-481], the Kd [5] is reported as 1190 nM.
